Source: ChEMBL document CHEMBL1201862, “PubChem BioAssay data set” (2004)
One block for each molecule: values may come before it. The source made the active and inactive calls.

Key:
[1] = biological target: Peroxisome proliferator-activated receptor gamma/Nuclear receptor corepressor 2 (Homo sapiens, UniProt P37231+Q9Y618); assay type: functional
[2] = biological target: Sphingosine 1-phosphate receptor 1 (Homo sapiens, UniProt P21453); assay type: functional;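 also: Tango beta-arrestin reporter U2OS cells stimulated with S1P near its EC80; inhibitor potency meaning antagonism of receptor activation by the natural agonist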
Chain of Sphingosine 1-phosphate receptor 1 (P21453 whole entry): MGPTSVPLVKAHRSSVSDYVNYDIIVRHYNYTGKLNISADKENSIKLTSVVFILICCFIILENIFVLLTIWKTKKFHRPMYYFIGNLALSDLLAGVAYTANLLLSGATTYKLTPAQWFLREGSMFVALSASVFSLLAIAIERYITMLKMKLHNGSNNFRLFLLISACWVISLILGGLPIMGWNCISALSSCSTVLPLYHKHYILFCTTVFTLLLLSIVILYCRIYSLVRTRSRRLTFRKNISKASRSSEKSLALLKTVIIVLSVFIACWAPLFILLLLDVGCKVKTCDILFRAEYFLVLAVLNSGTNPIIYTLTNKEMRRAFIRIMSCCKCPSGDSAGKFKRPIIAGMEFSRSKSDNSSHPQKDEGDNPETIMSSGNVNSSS

Caspase-6 = biological target: T1, Caspase-6 (Homo sapiens, UniProt P55212); assay: inhibition of CASP6 peptide cleavage – biochemical, VEID-R110 fluorescence, cherry-pick, dose response (AID 720632)
T1 sequence (P55212 whole entry): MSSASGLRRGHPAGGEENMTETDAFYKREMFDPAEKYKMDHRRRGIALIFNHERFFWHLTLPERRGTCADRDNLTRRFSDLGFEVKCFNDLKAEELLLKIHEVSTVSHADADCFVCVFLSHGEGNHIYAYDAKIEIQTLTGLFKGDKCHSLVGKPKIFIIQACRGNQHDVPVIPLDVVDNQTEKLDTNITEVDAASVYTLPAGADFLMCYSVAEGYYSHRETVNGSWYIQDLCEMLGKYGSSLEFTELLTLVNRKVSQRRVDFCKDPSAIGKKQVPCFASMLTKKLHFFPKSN

Caspase-9 = Caspase-9 (Homo sapiens, UniProt P55211); assay: inhibitors of purified CASP9 protease – biochemical, fluorescence, plate reader, cherry-picked samples, selectivity assay for caspase-6 inhibitor project, dose response (AID 743293)
Chain of Caspase-9 (P55211 1-315 limits assumed): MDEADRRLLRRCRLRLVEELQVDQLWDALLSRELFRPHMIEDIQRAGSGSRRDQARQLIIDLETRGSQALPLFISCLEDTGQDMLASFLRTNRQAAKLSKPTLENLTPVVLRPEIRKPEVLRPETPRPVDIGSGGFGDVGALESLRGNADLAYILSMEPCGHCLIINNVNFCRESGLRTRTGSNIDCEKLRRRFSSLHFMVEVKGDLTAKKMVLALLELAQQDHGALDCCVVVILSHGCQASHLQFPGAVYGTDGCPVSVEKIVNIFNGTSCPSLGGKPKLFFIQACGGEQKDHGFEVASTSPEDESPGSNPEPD
Chain of Caspase-9 (P55211 331-416 limits assumed): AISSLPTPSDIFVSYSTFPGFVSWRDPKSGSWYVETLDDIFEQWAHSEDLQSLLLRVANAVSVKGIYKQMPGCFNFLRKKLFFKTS

[3] = biological target: T2, Mannose-6-phosphate isomerase (Homo sapiens, UniProt P34949); assay: MPI inhibition at elevated mannose 6-phosphate – biochemical, fluorescence intensity, high mannose 6-phosphate, primary screen (AID 1220)
T2 sequence (P34949 whole entry): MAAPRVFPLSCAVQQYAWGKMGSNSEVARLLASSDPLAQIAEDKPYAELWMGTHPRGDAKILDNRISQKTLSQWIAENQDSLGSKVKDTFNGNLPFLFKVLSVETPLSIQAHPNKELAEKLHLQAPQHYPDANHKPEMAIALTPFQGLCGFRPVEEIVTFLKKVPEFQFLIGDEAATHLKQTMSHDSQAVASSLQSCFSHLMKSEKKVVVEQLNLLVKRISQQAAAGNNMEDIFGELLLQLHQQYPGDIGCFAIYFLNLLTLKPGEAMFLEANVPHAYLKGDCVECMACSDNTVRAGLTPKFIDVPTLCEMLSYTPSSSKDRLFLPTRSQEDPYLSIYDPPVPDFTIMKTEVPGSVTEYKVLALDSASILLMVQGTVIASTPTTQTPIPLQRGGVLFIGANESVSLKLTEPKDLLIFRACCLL

Caspase-3 = biological target: T3, Caspase-3 (Homo sapiens, UniProt P42574); assay: SAR Analysis of small molecule inhibitors of Sentrin-specific proteases (SENPs) using a Caspase-3 Selectivity assay. [Related pubchem assays (depositor defined):AID2540, AID2599, AID434973, AID489001]; assay type: functional
T3 sequence (P42574 whole entry): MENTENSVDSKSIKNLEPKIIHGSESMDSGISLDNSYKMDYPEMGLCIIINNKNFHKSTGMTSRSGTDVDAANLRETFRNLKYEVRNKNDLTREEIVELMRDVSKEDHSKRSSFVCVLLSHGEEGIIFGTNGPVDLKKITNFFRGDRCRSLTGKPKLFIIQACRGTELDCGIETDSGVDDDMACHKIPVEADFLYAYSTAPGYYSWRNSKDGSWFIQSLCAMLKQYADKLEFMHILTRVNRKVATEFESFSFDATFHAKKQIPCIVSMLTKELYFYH

[4] = biological target: T4, Rac GTPase-activating protein 1 (Homo sapiens, UniProt Q9H0H5); assay: blockers of MgcRacGAP-driven Rac1 GTP hydrolysis – biochemical, ADP Hunter fluorescence, primary and confirmatory, confirmation (AID 624330); assay type: functional
T4 sequence (Q9H0H5 whole entry): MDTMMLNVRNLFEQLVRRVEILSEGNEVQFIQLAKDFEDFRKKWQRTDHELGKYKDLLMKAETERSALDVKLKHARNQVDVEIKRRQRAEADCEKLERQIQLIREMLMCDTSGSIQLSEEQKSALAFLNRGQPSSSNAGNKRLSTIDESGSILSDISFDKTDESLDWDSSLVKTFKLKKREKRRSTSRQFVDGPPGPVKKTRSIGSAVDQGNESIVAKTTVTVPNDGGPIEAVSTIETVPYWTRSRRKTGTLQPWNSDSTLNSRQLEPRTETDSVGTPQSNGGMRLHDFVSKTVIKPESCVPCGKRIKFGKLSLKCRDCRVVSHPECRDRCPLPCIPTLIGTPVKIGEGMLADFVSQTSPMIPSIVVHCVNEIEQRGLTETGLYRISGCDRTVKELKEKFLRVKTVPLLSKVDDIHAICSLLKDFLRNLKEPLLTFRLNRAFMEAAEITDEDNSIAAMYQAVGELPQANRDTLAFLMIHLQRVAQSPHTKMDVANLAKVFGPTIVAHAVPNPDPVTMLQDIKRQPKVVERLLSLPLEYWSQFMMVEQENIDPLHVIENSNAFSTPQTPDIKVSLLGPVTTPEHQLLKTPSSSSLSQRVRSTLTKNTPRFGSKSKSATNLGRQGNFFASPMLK

cells [5] = assay type: functional, cell-based
[6] = fluconazole-exposed Candida albicans growth modulators – fluorescence, retest, confirmation (AID 2467); assay type: functional, cell-based
cells [7] = assay type: functional, cell-based; remark: listed apart in the source
Jurkat = assay: SAR Analysis of small molecule inhibitors of T-cell specific antigen receptor-induced NF-kB activation in a Jurkat cell line using a luminescence assay - Set 2. [Related pubchem assays (depositor defined):AID435003, AID435012, AID465]; assay type: functional, cell-based; settings: Homo sapiens
[8] = reduction of Shn3 3'UTR-driven luciferase in osteoblasts – cell-based, Clone20 osteoblasts, firefly luciferase, cherry-picked, dose response (AID 624132); assay type: functional;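 also: firefly luciferase luminescence from reporter carrying the Shn3 3'UTR in osteoblasts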
[9] = loss of viability in HepG2 cells – cell-based, CellTiter-Glo, cherry-picked, cytotoxicity control for Shn3 inhibitor project, dose response (AID 624134); assay type: functional
BJ = assay: BJ-TERT fibroblast viability loss – cell-based, RAS-independent, luminescence, dose response (AID 1933); assay type: functional; settings: Homo sapiens

Chain of Peroxisome proliferator-activated receptor gamma/Nuclear receptor corepressor 2 (P37231 whole entry): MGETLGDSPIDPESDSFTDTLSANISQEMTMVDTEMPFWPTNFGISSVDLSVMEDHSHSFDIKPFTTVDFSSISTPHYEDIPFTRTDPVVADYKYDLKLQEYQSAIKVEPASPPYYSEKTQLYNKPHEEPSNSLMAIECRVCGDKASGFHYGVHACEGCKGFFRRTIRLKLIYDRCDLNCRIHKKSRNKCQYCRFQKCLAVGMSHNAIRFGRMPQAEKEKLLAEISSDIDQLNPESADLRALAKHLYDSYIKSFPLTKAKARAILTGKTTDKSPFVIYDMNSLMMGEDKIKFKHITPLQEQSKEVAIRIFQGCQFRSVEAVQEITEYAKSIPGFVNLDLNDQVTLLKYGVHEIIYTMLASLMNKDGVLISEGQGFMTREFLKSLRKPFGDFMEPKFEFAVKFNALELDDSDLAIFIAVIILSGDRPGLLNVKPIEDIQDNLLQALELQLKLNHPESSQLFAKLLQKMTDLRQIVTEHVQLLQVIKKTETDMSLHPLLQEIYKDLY
Chain of Peroxisome proliferator-activated receptor gamma/Nuclear receptor corepressor 2 (Q9Y618 whole entry): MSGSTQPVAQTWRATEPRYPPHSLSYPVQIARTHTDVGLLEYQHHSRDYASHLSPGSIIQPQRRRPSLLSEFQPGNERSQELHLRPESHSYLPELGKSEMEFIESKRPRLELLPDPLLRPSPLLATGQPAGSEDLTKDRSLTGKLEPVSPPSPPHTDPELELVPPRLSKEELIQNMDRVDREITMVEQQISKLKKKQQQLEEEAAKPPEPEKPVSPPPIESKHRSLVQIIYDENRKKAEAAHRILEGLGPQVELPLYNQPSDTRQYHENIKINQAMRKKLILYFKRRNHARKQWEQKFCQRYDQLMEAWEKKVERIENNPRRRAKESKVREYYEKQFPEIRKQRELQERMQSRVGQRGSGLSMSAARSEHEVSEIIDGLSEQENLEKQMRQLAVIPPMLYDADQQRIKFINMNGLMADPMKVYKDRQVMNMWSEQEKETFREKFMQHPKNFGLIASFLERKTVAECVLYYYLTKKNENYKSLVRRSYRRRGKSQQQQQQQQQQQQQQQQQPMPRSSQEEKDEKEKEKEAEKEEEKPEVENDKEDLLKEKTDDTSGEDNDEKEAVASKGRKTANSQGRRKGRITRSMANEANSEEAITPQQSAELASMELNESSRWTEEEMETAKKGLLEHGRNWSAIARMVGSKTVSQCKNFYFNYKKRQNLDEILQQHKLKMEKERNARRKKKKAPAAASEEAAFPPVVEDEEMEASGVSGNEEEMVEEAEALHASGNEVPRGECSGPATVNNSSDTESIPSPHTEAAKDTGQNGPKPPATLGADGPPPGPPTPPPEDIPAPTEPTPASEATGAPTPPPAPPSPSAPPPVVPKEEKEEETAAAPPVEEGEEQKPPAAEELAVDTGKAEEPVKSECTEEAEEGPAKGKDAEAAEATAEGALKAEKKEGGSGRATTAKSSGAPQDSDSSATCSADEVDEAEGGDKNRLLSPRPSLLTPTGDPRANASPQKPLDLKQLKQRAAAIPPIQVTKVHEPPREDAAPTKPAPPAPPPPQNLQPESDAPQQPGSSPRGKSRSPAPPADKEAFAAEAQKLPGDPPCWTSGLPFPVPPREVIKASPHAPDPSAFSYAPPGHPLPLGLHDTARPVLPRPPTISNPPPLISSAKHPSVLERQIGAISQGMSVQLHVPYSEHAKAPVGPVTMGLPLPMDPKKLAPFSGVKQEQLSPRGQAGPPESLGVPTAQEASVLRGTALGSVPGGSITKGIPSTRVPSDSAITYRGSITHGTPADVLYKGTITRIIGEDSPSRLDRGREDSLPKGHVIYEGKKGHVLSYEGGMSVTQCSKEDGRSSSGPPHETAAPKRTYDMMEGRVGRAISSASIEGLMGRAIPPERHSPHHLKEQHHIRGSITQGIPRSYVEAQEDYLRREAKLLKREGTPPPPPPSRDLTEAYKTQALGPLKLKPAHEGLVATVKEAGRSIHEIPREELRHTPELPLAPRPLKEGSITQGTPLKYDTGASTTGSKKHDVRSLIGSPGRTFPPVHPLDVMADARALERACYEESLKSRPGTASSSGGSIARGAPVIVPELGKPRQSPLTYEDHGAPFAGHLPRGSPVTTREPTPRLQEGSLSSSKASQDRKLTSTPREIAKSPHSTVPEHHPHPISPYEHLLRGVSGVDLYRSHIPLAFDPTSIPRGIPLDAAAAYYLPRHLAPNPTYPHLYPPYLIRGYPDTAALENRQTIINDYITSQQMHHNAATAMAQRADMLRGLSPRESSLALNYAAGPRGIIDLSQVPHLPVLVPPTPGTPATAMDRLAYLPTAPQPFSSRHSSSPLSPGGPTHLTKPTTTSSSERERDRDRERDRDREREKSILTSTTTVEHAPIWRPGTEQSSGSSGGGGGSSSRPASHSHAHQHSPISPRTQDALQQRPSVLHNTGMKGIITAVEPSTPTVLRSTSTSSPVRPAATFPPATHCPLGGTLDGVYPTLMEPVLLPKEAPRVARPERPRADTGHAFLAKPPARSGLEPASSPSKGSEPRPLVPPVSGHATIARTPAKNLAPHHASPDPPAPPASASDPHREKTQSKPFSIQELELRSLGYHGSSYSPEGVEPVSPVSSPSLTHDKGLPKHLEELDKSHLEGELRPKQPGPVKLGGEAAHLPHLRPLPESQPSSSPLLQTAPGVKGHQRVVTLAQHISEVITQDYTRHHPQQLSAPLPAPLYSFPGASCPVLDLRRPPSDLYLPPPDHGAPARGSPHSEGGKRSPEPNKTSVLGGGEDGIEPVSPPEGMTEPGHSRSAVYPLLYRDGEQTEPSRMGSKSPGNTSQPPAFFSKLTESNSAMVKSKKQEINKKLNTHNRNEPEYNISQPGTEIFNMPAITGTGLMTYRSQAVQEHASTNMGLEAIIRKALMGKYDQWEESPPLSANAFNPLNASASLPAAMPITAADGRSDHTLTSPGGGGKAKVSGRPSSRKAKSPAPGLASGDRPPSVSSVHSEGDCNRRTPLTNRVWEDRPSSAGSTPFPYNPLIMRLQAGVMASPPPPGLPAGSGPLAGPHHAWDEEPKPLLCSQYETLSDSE

Compound: Cn1nc(-c2ccc(Cl)cc2)nc2c(=O)n(C)c(=O)nc1-2
IC50 [1]: > 4.43 µM (active)
IC50 [2]: 2.34 µM (active)

AC50 (Caspase-6): 3.33 µM (active)
AC50 (Caspase-9): 22.8 µM (active)
Compound: NS(=O)(=O)c1ccc(NC(=O)COC(=O)c2ccc([N+](=O)[O-])s2)cc1

IC50 [3]: > 50 µM (not active)
IC50 (Caspase-3): > 99 µM (inactive)
IC50 [4]: 39.5 µM (active)
Compound: CCCCNc1cc(NC(C)=O)cc2cc(OC)c(OC)cc12

Compound: COc1ccc(C(NC(=O)C(C)C)c2ccc3cccnc3c2O)cc1 (centres undefined)
EC50 (cells [5]): 5.77 µM (active)
EC50 [6]: 0.692 µM (active)
EC50 (cells [7]): > 350 µM (not active)
IC50 (Jurkat): 2.38 µM (active)
AC50 [8]: 1.35 µM (active)
AC50 [9]: 1.27 µM (active)

Compound: O=C(Cc1ccc([N+](=O)[O-])cc1)N/N=C/c1ccc([N+](=O)[O-])o1
EC50 (BJ): > 150 µM (not active)
